# Measured values taken from patent US8476298B2 (Exelixis, Inc., priority 2003, dated 2013).
# Columns and labels:
# [1] = molecular target: T1, Flt-3 (baculovirus expressed human Flt-3 kinase domain R571-S993) (Homo sapiens, UniProt P36888); assay: biochemical; conditions: read-out: flt3 IC50;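 also: Luciferase-coupled chemiluminescent kinase assay, activity read as percent ATP left after a 3 h reaction at room temperature, ATP near KM, 10-point dose-response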
# T1 construct: human Flt-3 kinase domain R571-S993; host or cells: baculovirus expression
# T1 sequence (P36888 571-993): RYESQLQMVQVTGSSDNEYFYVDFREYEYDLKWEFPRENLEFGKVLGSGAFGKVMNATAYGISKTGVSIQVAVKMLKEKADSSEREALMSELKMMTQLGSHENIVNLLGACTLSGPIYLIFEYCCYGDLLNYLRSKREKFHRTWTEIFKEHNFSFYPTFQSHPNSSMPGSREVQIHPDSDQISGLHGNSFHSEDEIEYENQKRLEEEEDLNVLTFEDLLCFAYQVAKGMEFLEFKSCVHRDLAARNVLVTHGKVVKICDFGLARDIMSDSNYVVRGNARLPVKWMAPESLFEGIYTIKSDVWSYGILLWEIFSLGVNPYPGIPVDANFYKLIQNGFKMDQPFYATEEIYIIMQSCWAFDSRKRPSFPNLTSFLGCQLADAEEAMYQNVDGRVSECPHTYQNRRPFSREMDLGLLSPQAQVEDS
# [2] = molecular target: T2, c-Met (baculovirus expressed human c-Met kinase domain P948-S1343) (Homo sapiens, UniProt P08581); assay: c-Met Luciferase-Coupled Chemiluminescent Kinase assay (LCCA); format: biochemical;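 also: kinase activity read as percent ATP left after reaction, by luciferase-luciferin chemiluminescence, with 1 µM ATP and 1 µM poly-EY substrate, 2 h at ambient temperature, 10-point dose-response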
# T2 construct: human c-Met kinase domain P948-S1343; host or cells: baculovirus expression
# c-Kit kinase = c-Kit kinase (Homo sapiens, UniProt P10721); assay: c-Kit AlphaScreen kinase assay; format: biochemical;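 also: c-Kit kinase phosphorylating biotinylated poly(Glu,Tyr), ATP near its KM, 1 h reaction at ambient temperature, AlphaScreen chemiluminescence with streptavidin donor and anti-phosphotyrosine acceptor beads, 10-point inhibitor titration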
# [3] = molecular target: T3, KDR (baculovirus expressed human KDR kinase domain D807-V1356) (Homo sapiens, UniProt P35968); assay: biochemical;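 also: Luciferase-coupled chemiluminescent kinase assay, activity read as percent ATP left after 4 h reaction at ambient temperature, ATP near KM, 10-point dose-response in 384-well plates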
# T3 construct: human KDR kinase domain D807-V1356; host or cells: baculovirus expression
# [4] = molecular target: T4, Flt-4 (baculovirus expressed human Flt-4 kinase domain D725-R1298) (Homo sapiens, UniProt P35916); assay: flt-4 Alphascreen Tyrosine Kinase assay; format: biochemical; conditions: read-out: flt4 IC50;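 also: AlphaScreen chemiluminescence read-out of biotinylated poly(Glu,Tyr) 4:1 phosphorylation via streptavidin donor and PY100 anti-phosphotyrosine acceptor beads, ATP near KM, 1 hr kinase reaction, 10-point dose-response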
# T4 construct: human Flt-4 kinase domain D725-R1298; host or cells: baculovirus expression
# T4 sequence (P35916 725-1298 isoform P35916-1): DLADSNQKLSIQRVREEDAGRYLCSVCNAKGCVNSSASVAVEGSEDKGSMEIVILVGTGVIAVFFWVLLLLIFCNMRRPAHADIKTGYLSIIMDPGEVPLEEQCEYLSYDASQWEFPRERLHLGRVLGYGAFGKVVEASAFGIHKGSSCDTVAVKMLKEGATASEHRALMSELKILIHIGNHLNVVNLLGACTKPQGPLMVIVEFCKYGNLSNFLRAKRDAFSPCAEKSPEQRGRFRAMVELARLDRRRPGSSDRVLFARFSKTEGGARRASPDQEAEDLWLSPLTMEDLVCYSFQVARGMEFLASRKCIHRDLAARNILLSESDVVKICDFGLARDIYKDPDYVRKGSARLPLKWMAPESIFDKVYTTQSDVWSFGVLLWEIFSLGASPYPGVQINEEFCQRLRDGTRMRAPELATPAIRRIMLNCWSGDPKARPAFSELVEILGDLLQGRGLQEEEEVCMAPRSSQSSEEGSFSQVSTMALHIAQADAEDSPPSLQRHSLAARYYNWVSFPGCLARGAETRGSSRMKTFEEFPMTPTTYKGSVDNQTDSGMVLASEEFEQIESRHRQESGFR
# T3 sequence (P35968 807-1356): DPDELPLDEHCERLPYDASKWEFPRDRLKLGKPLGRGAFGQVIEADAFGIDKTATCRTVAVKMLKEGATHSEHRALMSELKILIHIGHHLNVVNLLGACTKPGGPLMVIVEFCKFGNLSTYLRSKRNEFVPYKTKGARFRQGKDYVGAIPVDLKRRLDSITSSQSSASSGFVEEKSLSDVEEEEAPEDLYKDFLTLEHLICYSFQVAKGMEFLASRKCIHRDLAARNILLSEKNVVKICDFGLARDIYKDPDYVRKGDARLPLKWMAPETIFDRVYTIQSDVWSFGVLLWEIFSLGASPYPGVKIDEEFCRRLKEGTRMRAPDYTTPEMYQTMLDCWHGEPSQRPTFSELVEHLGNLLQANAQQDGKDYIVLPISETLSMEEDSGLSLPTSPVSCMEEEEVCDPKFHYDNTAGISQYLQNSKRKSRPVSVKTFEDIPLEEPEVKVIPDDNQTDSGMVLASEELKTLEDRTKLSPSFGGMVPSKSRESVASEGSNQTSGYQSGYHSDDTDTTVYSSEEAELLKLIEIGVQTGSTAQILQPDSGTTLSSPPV
# T2 sequence (P08581 1011-1343 limits assumed): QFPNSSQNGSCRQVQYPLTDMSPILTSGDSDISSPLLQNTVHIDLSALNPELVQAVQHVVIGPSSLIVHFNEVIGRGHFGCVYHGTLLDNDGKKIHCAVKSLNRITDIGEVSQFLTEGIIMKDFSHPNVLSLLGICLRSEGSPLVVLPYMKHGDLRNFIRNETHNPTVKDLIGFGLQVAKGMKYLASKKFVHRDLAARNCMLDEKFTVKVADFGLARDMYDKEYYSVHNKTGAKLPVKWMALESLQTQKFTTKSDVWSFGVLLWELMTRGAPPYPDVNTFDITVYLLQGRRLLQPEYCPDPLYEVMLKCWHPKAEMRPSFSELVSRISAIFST
# c-Kit kinase, sequence (P10721 26-976): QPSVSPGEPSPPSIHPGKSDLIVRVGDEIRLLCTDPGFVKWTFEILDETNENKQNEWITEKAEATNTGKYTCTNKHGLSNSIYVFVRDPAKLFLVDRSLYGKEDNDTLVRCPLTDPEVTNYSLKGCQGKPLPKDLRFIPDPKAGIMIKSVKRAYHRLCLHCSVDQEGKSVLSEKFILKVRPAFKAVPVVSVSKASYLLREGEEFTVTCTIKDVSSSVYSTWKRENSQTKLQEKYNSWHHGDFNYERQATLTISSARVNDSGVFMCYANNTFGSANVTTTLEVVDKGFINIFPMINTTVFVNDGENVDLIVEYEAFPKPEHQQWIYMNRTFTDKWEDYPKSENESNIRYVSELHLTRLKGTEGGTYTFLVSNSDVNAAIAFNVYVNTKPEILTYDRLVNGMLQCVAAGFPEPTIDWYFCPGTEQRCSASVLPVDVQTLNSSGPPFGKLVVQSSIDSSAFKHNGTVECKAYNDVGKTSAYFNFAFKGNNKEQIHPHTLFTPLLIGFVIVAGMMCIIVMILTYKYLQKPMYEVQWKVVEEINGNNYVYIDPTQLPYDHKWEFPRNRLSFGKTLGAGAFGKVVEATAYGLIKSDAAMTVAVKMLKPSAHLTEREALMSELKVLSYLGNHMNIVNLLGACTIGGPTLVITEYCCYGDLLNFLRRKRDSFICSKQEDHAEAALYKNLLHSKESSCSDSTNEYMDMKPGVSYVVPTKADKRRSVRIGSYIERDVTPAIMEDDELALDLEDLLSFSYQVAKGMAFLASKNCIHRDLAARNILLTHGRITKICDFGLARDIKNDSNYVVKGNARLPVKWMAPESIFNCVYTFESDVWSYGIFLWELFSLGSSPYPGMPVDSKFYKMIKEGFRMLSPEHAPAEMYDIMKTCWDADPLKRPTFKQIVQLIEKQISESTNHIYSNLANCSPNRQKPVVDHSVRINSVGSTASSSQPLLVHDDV
IC50 [1] [nM],IC50 [2] [nM],IC50 (c-Kit kinase) [nM],IC50 [3] [nM],IC50 [4] [nM],Structure (SMILES)
< 50,< 50,< 50,< 50,< 50,"COc1cc2c(Oc3ccc(NC(=O)C4(C(=O)Nc5ccc(F)cc5)CC4)cc3F)ncnc2cc1OCCCN1CCOCC1 [Example 315, N-[3-fluoro-4-({6-(methyloxy)-7-[(3-morpholin-4-ylpropyl)oxy]quinazolin-4-yl}oxy)phenyl]-N′-(4-fluorophenyl)cyclopropane-1,1-dicarboxamide]"
< 50,< 50,< 50,< 50,< 50,"COc1cc2c(Oc3ccc(NC(=O)C4(C(=O)Nc5ccc(F)cc5)CC4)cc3F)ncnc2cc1OCC1CCN(C)CC1 [Example 316, N-{3-fluoro-4-[(6-(methyloxy)-7-{[(1-methylpiperidin-4-yl)methyl]oxy}quinazolin-4-yl)oxy]phenyl}-N′-(4-fluorophenyl)cyclopropane-1,1-dicarboxamide]"
500 to 5000,< 50,< 50,< 50,< 50,"COc1cc2nccc(Oc3ccc(NC(=O)C4(C(=O)Nc5ccc(F)cc5)CC4)c(C)c3)c2cc1OC [Example 317, N-(4-{[6,7-bis(methyloxy)quinolin-4-yl]oxy}-2-methylphenyl)-N′-(4-fluorophenyl)cyclopropane-1,1-dicarboxamide]"
50 to 500,< 50,50 to 500,< 50,50 to 500,"COc1cc2c(Oc3ccc(NC(=O)C4(C(=O)Nc5ccc(F)cc5)CC4)c(C)n3)ccnc2cc1OCCCN1CCOCC1 [Example 318, N-(4-fluorophenyl)-N′-[2-methyl-6-({6-(methyloxy)-7-[(3-morpholin-4-ylpropyl)oxy]quinolin-4-yl}oxy)pyridin-3-yl]cyclopropane-1,1-dicarboxamide]"
50 to 500,< 50,500 to 5000,500 to 5000,500 to 5000,"COc1cc2nccc(Oc3nc(C)c(NC(=O)C4(C(=O)Nc5ccc(F)cc5)CC4)cc3Cl)c2cc1OC [Example 320, N-(6-{[6,7-bis(methyloxy)quinolin-4-yl]oxy}-5-chloro-2-methylpyridin-3-yl)-N′-(4-fluorophenyl)cyclopropane-1,1-dicarboxamide]"
< 50,< 50,50 to 500,< 50,< 50,"COc1cc2ncnc(Oc3ccc(NC(=O)C4(C(=O)Nc5ccc(F)cc5)CC4)cc3F)c2cc1OCCCN1CCOCC1 [Example 321, N-[3-fluoro-4-({7-(methyloxy)-6-[(3-morpholin-4-ylpropyl)oxy]quinazolin-4-yl}oxy)phenyl]-N′-(4-fluorophenyl)cyclopropane-1,1-dicarboxamide]"
< 50,< 50,< 50,< 50,< 50,"COc1cc2nccc(Oc3ccc(NC(=O)C4(C(=O)Nc5ccc(F)cc5)CC4)cc3F)c2cc1OCCCN1CCOCC1 [Example 322, N-[3-fluoro-4-({7-(methyloxy)-6-[(3-morpholin-4-ylpropyl)oxy]quinolin-4-yl}oxy)phenyl]-N′-(4-fluorophenyl)cyclopropane-1,1-dicarboxamide]"
< 50,< 50,50 to 500,< 50,< 50,"COc1cc2nccc(Oc3c(F)cc(NC(=O)C4(C(=O)Nc5ccc(F)cc5)CC4)cc3F)c2cc1OC [Example 323, N-(4-{[6,7-bis(methyloxy)quinolin-4-yl]oxy}-3,5-difluorophenyl)-N′-(4-fluorophenyl)cyclopropane-1,1-dicarboxamide]"
< 50,< 50,< 50,< 50,< 50,"COc1cc2nccc(Oc3cc(F)c(NC(=O)C4(C(=O)Nc5ccc(F)cc5)CC4)cc3F)c2cc1OC [Example 324, N-(4-{[6,7-bis(methyloxy)quinolin-4-yl]oxy}-2,5-difluorophenyl)-N′-(4-fluorophenyl)cyclopropane-1,1-dicarboxamide]"
